{"source": "patent US10408843B2", "about": "“Compositions and methods for detecting S-nitrosylation and S-sulfinylation” (The Regents of the University of Michigan, priority 2013, dated 2019)", "key": {"[1]": {"test_system": "S-nitrosylated proteins in mammalian cell lysates", "assay": "Gel-based labeling of endogenous S-nitrosylated proteins in cell lysates", "type": "biochemical, human", "conditions": "lysates denatured, alkylated with iodoacetamide; streptavidin detection", "experimental": "FIG. 8. Dose-dependent labeling of S-nitrosylated proteins by biotin-SO2H. 293T and PANC1 cells were lysed in 6 M urea/PBS and alkylated with 50 mM iodoacetamide for 30 minutes, followed by incubation with increasing concentrations of biotin-SO2H for 45 minutes.\nNext, the reactivity of sulfinic acids with native S-nitrosylated proteins was examined. Biotin and fluorescein N-hydroxysuccinimide (NHS) esters were directly coupled to the biological sulfinic acid metabolite hypotaurine (biotin-SO2H) or the sulfonic acid metabolite taurine (biotin-SO3H). Each probe was incubated with mammalian cell lysates pre-alkylated with excess iodoacetamide (FIG. 1b) in 6 M urea/phosphate buffered saline (PBS), and separated by non-reducing SDS-PAGE for transfer to nitrocellulose and streptavidin detection. […]\nCells and lysates were protected from light and kept on ice throughout the labeling protocol, except when noted. […] Lysate protein concentrations were quantified using the Bio-Rad DC assay, and diluted 3 mg/mL in 6 M urea/PBS. […] For in-gel fluorescence analysis, samples were loaded without boiling using non-reducing SDS-PAGE loading buffer for SDS-PAGE separation. […] In-gel fluorescence and streptavidin blots were analyzed using a GE typhoon scanner at appropriate wavelengths (488/526 for fluorescein and 633/670 for Cy5-Streptavidin)."}, "[2]": {"test_system": "sulfenic acids in 293T cell lysates", "assay": "Dimedone-alkyne detection of sulfenic acids in lysates", "type": "biochemical, human", "experimental": "FIG. 12. Sulfenic acids are eliminated by ascorbate reduction or denaturing buffers. Lysates were labeled for 1 hour with 1 mM dimedone-alkyne, and precipitated with chloroform:methanol. The protein fraction was sonicated in PBS and diluted to 1 mg/mL, and incubated with 20 μM TAMRA-azide, 1 mM CuSO4, and 100 μM Tris[(1-benzyl-1H-1,2,3-triazol-4-yl)methyl]amine (TBTA) for 1 hour, boiled in reducing loading buffer, and separated by SDS-PAGE. After transfer and Cy5-streptavidin binding, the gel was visualized using a GE Typhoon fluorescence scanner. […] Pre-treatment with sodium ascorbate (20 mM) for 30 minutes efficiently reduces sulfenic acids. […] Furthermore, ascorbate reduces sulfenic acids, and confirms non-selective enrichment of an additional cysteine oxidative modification by the biotin-switch method."}, "[3]": {"biological_target": "T1, Recombinant human GAPDH (Homo sapiens, UniProt P04406)", "T1 construct": "6His; made in house; host or cells: E. coli BL21", "T1 sequence (P04406 whole entry)": "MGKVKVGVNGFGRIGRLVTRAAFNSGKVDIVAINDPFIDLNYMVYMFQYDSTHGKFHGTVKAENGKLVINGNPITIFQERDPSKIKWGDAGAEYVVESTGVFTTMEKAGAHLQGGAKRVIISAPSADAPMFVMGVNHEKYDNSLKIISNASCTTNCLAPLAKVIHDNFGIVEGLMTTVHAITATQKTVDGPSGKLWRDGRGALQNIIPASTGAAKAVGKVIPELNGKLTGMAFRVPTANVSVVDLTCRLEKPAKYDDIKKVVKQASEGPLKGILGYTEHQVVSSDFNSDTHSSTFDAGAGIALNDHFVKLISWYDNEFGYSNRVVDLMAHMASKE", "assay": "Labeling of recombinant GAPDH (in-gel fluorescence, LC-MS)", "type": "biochemical", "experimental": "FIG. 14. Profiling fluorescein-SO2H reactivity and selectivity on S-nitrosylated GAPDH. Recombinant human GAPDH was resuspended in 6 M urea/PBS, treated with 50 mM iodoacetamide for 30 minutes, and mixed with dimedone, ascorbate, peroxide or NO donor (5 minutes). Fluorescein-SO2H (500 μM) was then added to the GAPDH sample for 45 minutes. S-nitrosylated human GAPDH labeling increases upon incubation with the NO donor MAHMA-NONOate, and decreases following treatment with ascorbate. […] Fluorescein-SO2H labeling is unaffected by pre-incubation with peroxide or dimedone.\nFIG. 15. Biotin-SO2H reacts with human GAPDH and forms a thiosulfonate. Recombinant human GADPH was labeled with biotin-SO2H for site-specific analysis of S-nitrosylation by high-resolution mass spectrometry.\nGiven the efficient and selective conjugation of sulfinic acids and nitrosothiols, recombinant human GAPDH were next purified for targeted analysis of S-sulfinylation with biotin-SO2H. […] Biotin-SO2H-labeled GAPDH protein was digested with trypsin and analyzed by high-resolution mass spectrometry, identifying a biotin-thiosulfonate modified peptide encompassing the GAPDH catalytic cysteine (FIG. 15). […] These studies confirm direct detection of native of S-sulfinylation by sulfinic acid probes for mass spectrometry analysis.\nPurified human GAPDH was diluted to 0.2 mg/mL in phosphate buffered saline (pH 7.3), and treated with 20 mM iodoacetamide for 30 minutes. Next, the sample was treated with 100 μM biotin-SO2H. Purified human DJ-1 was diluted to 0.2 mg/mL in PBS, and incubated with 20 mM iodoacetamide to alkylated free thiols. Next, the sample was treated with 2 mM hydrogen peroxide for 20 minutes to promote Cys106 sulfinic acid formation. […] Eluted peptides were analyzed using a Waters Synapt G2-S HDMS time-of-flight mass spectrometer in positive mode. […] MS data was searched using Waters Protein Lynx Global Server v3.0 using the exact mass calculated for the cysteine thiosulfonate modification."}, "[4]": {"assay": "Rate constant determination: loss of GSNO absorbance after phenylsulfinic acid addition", "type": "physicochemical", "experimental": "FIG. 6A-B. GSNO is consumed by increasing concentrations of sodium phenylsulfinate. (a) A 2 mM solution of S-nitrosoglutathione (GSNO, Cayman) was treated with increasing concentrations of phenylsulfinic acid, and the absorbance of GSNO was monitored over a period of 90 minutes at 340 nm using a plate reader in varying pH buffers. (b) Calculation of rate constants at differing pH values. At pH 7, the rate becomes more hyperpbolic.\nThiosulfonate formation was further characterized by measuring the loss of S-nitroso-glutathione (GSNO) absorbance after phenylsulfinic acid addition (FIG. 6). At pH 1 and 4, the reaction rate is first order and proceeds at 3×10^−5 M·sec^−1. […]\nS-nitrosoglutathione (GSNO, Cayman) and sodium phenylsulfinate (Sigma-Aldrich) were used for rate-determination studies at four pH values: pH 1.0 (0.2 N HCl/KCl buffer), pH 4.0 (0.1 M Sodium acetate/Acetic Acid buffer), pH 7.0 (0.1 M potassium phosphate buffer) and pH 10.0 (0.1 M Sodium bicarbonate/Sodium hydroxide buffer). The purity of S-nitrosoglutathione was calculated as 94±1.3% by absorbance at 334 nm using the molar extinction coefficient of 900 M^−1 cm^−1. Assays were performed using a plate reader (Tecan Infinite F500) monitoring absorbance of 2 mM GSNO at 340 nm over a course of 90 minutes in the presence of varying concentrations of sodium phenylsulfinate. […]"}, "[5]": {"assay": "HPLC cross-reactivity assay of phenylsulfinic acid", "type": "physicochemical", "experimental": "FIG. 3. […] A 10 mM solution of phenylsulfinic acid was allowed to react with a 20 mM solution of iodoacetamide in potassium phosphate buffer pH 7.4 for 5 hours. After 5 hours, the reaction mixture was injected on an HPLC and separated using gradient elution (5% ACN to 95% ACN over 15 minutes). Absence of additional peaks (over 202-798 nm, monitored on a PDA detector) was interpreted as no reaction between the sulfinic acid and iodoacetamide.\nA 2 mM solution of phenylsulfinic acid was allowed to stand with 20 mM solutions of N-acetyl-cysteine-methyl ester, benzaldehyde, cystine dimethyl ester, and 5,5′-dithiobis-(2-nitrobenzoic acid) in phosphate buffer pH 7.4 for 5 hours. The reaction mixtures were injected on an HPLC and analyzed using gradient elution (5% ACN to 95% ACN over 15 minutes). Peaks beyond minute 8.6 in (a) are contaminants present in the commercial cysteine sample (Sigma-Aldrich).\nCross-reactivity was determined by allowing components to react for 4 hours. HPLC analysis (every 30 minutes) was used to monitor reactions. Reduction in peak intensity of initial components and the appearance of new peak was termed as a positive reaction. Partial reaction indicates incomplete reaction."}, "[6]": {"assay": "HPLC assay of thiosulfonate reduction by TCEP or ascorbate", "type": "physicochemical", "experimental": "FIG. 5A-B. The thiosulfonate product is reduced by TCEP, but not ascorbate. A 0.5 mM solution of the thiosulfonate product was incubated with 2.5 mM TCEP or 2.5 mM sodium ascorbate in phosphate buffer (pH 7.4) in the dark at room temperature. After 5 minutes and 60 minutes, an aliquot injected for HPLC analysis and separated using gradient elution (5% ACN to 95% ACN over 15 minutes)."}}, "data": [{"smiles": "O=C(CCCC[C@@H]1SC[C@@H]2NC(=O)N[C@@H]21)NCCS(=O)(=O)O", "note": "[biotin-SO3H, 2-(5-((3aS,4S,6aR)-2-oxohexahydro-1H-thieno[3,4-d]imidazol-4-yl)pentanamido)ethanesulfonic Acid]", "values": [{"measurement": "labeling of mammalian proteins", "setting": "[1]", "result": "unreactive"}]}, {"smiles": "C#CCCCC1CC(=O)CC(=O)C1", "note": "[Dimedone alkyne, 5-(pent-4-yn-1-yl)cyclohexane-1,3-dione]", "values": [{"measurement": "detection of sulfenic acids", "setting": "[2]; 1 mM, 1 hour, PBS", "result": "most efficient in PBS"}, {"measurement": "dimedone labeling", "setting": "[2]; lysate denatured in 6 M urea/PBS", "result": "nearly completely eliminated"}]}, {"smiles": "O=C(NCCS(=O)O)c1ccc(-c2c3ccc(=O)cc-3oc3cc(O)ccc23)c(C(=O)O)c1", "note": "[Fluorescein-SO2H, 2-(6-hydroxy-3-oxo-3H-xanthen-9-yl)-5-((2-sulfinoethyl)carbamoyl)benzoic Acid]", "values": [{"measurement": "GAPDH labeling after pre-incubation with peroxide or dimedone", "setting": "[3]; 500 μM probe, 45 minutes", "result": "unaffected"}]}, {"smiles": "O=S(O)c1ccccc1", "note": "[phenylsulfinic acid]", "values": [{"measurement": "reaction with GSNO", "setting": "[4]; basic conditions", "result": "no reaction occurs"}, {"measurement": "reaction rate of thiosulfonate formation with GSNO", "setting": "[4]; pH 1 and 4, first order", "result": "3e-05", "unit": "M/s"}, {"measurement": "reaction with thiols, disulfides, or aldehydes", "setting": "[5]; 2 mM with 20 mM N-acetyl-cysteine-methyl ester, benzaldehyde, cystine dimethyl ester, DTNB, phosphate buffer pH 7.4, 5 hours", "result": "do not react"}, {"measurement": "reaction with iodoacetamide", "setting": "[5]; 10 mM with 20 mM iodoacetamide, potassium phosphate buffer pH 7.4, 5 hours", "result": "no reaction"}]}, {"smiles": "O=C(NCCS(=O)(=O)O)c1ccc(-c2c3ccc(=O)cc-3oc3cc(O)ccc23)c(C(=O)O)c1", "note": "[fluorescein-SO3H, 2-(6-hydroxy-3-oxo-3H-xanthen-9-yl)-5-((2-sulfoethyl)carbamoyl)benzoic Acid]", "values": [{"measurement": "labeling of GAPDH", "setting": "[3]; 6 M urea/PBS, 50 mM iodoacetamide, probe 45 minutes", "result": "does not label GAPDH"}]}, {"smiles": "COC(=O)[C@H](CSS(=O)(=O)c1ccccc1)NC(C)=O", "note": "[thiosulfonate product, (R)-methyl 2-acetamido-3-((phenylsulfonyl)thio)propanoate]", "values": [{"measurement": "cleavage of thiosulfonate bond by TCEP", "setting": "[6]; 0.5 mM with 2.5 mM TCEP, phosphate buffer pH 7.4, room temperature", "result": "immediately cleaves"}, {"measurement": "cleavage of thiosulfonate bond by ascorbate", "setting": "[6]; 0.5 mM with 2.5 mM sodium ascorbate, pH 7.4, 60 minutes", "result": "does not"}]}]}
